Reference: US20210254056A1, “IDENTIFICATION AND TARGETED MODULATION OF GENE SIGNALING NETWORKS” (CAMP4 THERAPEUTICS CORPORATION, priority 2017, published 2021)
Where a name gives a salt, the structure may show the parent alone.

Test system: hepatocytes
Assay: RNA-seq of hepatocytes stimulated with the compounds of Table 68
Settings: not given

Row | Compound | # of genes having significantly altered expression
1 | [Cl][Co][Cl] [Cobalt chloride] | 1275
2 | Cc1cc(C(C)Nc2ccccc2)c2nc(N3CCOCC3)cc(=O)n2c1 (centres unmarked) [TGX-221] | 1
3 | Cc1ccccc1N=Nc1ccc(NC(=O)c2ccnn2C)c(C)c1 [CH223191] | 198
4 | CC1(C)CC=C(c2cnc3ccccc3c2)c2cc(C(=O)Nc3ccc(C(=O)O)cc3)ccc21 [BMS 195614] | 46
5 | Oc1c(F)cc(-c2cnccc2-c2ccc(N3CCOCC3)cc2)cc1F [LJI308] | 1
6 | Varenicline tartrate | 7
7 | Pifithrin-μ | 5377
8 | CCN(CC)CCCC(C)Nc1ccnc2cc(Cl)ccc12 (centres unmarked) [Chloroquine phosphate] | 573
9 | O=C1NC(=O)/C(=C/c2cccc(C(F)(F)F)c2)S1 [SMI-4a] | 1436
10 | COc1cccc(-n2c(=O)[nH]c3cc(Cl)n(-c4ccc(-c5cccc(OC)c5O)cc4)c3c2=O)c1 [GSK621] | 5
11 | COc1cccc(-c2cc(NCc3ccc4c(c3)OCO4)nc(N)n2)c1 [Wnt agonist 1] | 138
12 | C[C@H]1[C@H]2N(C(=O)CN(C)N2C(=O)NCc2ccccc2)[C@@H](Cc2ccc(OP(=O)(O)O)cc2)C(=O)N1Cc1cccc2cccnc12 [PRI-724] | 88
13 | C[C@@]1(C(=O)Nc2ccc(F)nc2)CCCN1c1nc(Nc2cc(C3CC3)n[nH]2)c2cccn2n1 [BMS-754807] | 302
14 | CCC1=C(C)CN(C(=O)NCCc2ccc(S(=O)(=O)NC(=O)N[C@H]3CC[C@H](C)CC3)cc2)C1=O [Gilmepiride] | 39
15 | CS[C@H]1SC[C@H]2C(=O)N(C)[C@@H](C(C)C)C(=O)OC[C@@H](NC(=O)c3cnc4ccccc4n3)C(=O)N[C@@H](C)C(=O)N(C)[C@@H]1C(=O)N(C)[C@@H](C(C)C)C(=O)OC[C@@H](NC(=O)c1cnc3ccccc3n1)C(=O)N[C@@H](C)C(=O)N2C [Echinomycin] | 7161
16 | Cn1cc(-c2ccc3nnc(C(F)(F)c4ccc5ncccc5c4)n3n2)cn1 [JNJ-38877605] | 64
17 | OCc1ccc(-c2ccc(-c3ccc(CO)s3)o2)s1 [RITA (NSC 652287)] | 105
18 | COc1ccc(C(=O)Nc2sc3c(c2C(N)=O)CCCC3)cc1OC [TCS 359] | 63
19 | CCCCC/C=C\C/C=C\C/C=C\C/C=C\CCCC(=O)NCCCl [ACEA] | 2

Same assay, conditions: hepatocytes stimulated with the compound; RNA-seq; […]

Row | Compound | # of genes having significantly altered expression
20 | Cc1ccc(NC(=O)c2ccc(CN3CCN(C)CC3)cc2)cc1Nc1nc(-c2cccnc2)cs1 [Mastinib] | 151
21 | Cc1ccc2nc(NC(=O)CSc3nc4c(c(=O)n3-c3ccccc3)SCC4)sc2c1 [IWP-2] | 15

Same assay, conditions: hepatocytes stimulated with the compound; RNA-seq; significance: FPKM≥1, q-value≤0.05, log 2 fold change≥1.5

Row | Compound | # of genes having significantly altered expression
22 | C=C1/C(=C\C=C2/CCC[C@]3(C)[C@@H]([C@H](C)/C=C/C=C/C(O)(CC)CC)CC[C@@H]23)C[C@@H](O)C[C@@H]1O [EB1089] | 68
23 | COCCOc1cnc2ccn([C@H](C)c3nnc4c(F)cc(-c5cnn(C)c5)cn34)c(=O)c2c1 [AMG337] | 3
24 | CN(C)C/C=C/C(=O)Nc1cc2c(Nc3ccc(F)c(Cl)c3)ncnc2cc1O[C@H]1CCOC1 [Afatinib] | 2010
25 | C=C1/C(=C\C=C2/CCC[C@]3(C)[C@@H]([C@H](C)CCCC(C)(C)O)CC[C@@H]23)C[C@@H](O)C[C@@H]1O [Calcitrol] | 1950
26 | Cc1[nH]c(/C=C2\C(=O)Nc3ccc(S(=O)(=O)Cc4c(Cl)cccc4Cl)cc32)c(C)c1C(=O)N1CCC[C@@H]1CN1CCCC1 [PHA-665752] | 1767
27 | Oc1c2ccccc2c2c3c(cccc13)N=N2 [SP600125] | 193
28 | NCC(=O)Nc1ccc(-n2nc(C(F)(F)F)cc2-c2ccc3c(ccc4ccccc43)c2)cc1 [OSU-03012] | 1786
29 | CNC(=O)c1cc(Oc2ccc(NC(=O)Nc3ccc(Cl)c(C(F)(F)F)c3)c(F)c2)ccn1 [Regorafenib] | 10
30 | C[C@@H](Oc1cc(-c2cnn(C3CCNCC3)c2)cnc1N)c1c(Cl)ccc(F)c1Cl [Crizotinib] | 3265
31 | OCCn1cc(-c2ccc3c(c2)CC/C3=N\O)c(-c2ccncc2)n1 [GDC-0879] | 274
32 | CNC(=O)c1ccccc1Sc1ccc2c(/C=C/c3ccccn3)n[nH]c2c1 [Axitinib] | 5
33 | O=c1cc(N2CCOCC2)oc2c(-c3ccccc3)cccc12 [LY294002] | 981
34 | COc1cc(Nc2c(C#N)cnc3cc(OCCCN4CCN(C)CC4)c(OC)cc23)c(Cl)cc1Cl [Bosutinib] | 2184
35 | C=C(c1ccc(C(=O)O)cc1)c1cc2c(cc1C)C(C)(C)CCC2(C)C [Bexarotene] | 267
36 | O=C1CCC(N2C(=O)c3ccccc3C2=O)C(=O)N1 (centres unmarked) [Thalidomide] | 3092
37 | C[C@@H]1CC(=O)c2c(ccc3c2C(=O)c2cccc(O)c2C3=O)C1 [STA-21] | 6
38 | Activin | 798
39 | S=C(NCc1ccc2c(c1)OCO2)N1CCN(c2ncnc3c2oc2ccccc23)CC1 [Amuvatinib] | 2835
40 | CCNC1(C(N)=O)CCN(c2ncnc3c2nc(-c2ccccc2Cl)n3-c2ccc(Cl)cc2)CC1 [Otenabant] | 36

Test system: primary human hepatocytes
Assay: RNA-seq of primary human hepatocytes treated with 39 small molecules (pilot and validation)
Settings: RNA-seq, p-value≤0.05; primary human hepatocytes; the modulated genes are listed in the block

Row | Compound | significant modulation of gene expression
41 | Cc1ccc(NC(=O)c2ccc(CN3CCN(C)CC3)cc2)cc1Nc1nccc(-c2cccnc2)n1 [MT-182, Imatinib] | significantly (p-value≤0.05) modulate
42 | CCCCC(C)(C)[C@H](O)/C=C/[C@H]1[C@H](O)CC(=O)[C@@H]1C/C=C\CCCC(=O)O [MT-937, DmPGE2] | significantly (p-value≤0.05) modulate
43 | CCOc1ccn(-c2ccc(F)cc2)c(=O)c1C(=O)Nc1ccc(Oc2ccnc(N)c2Cl)c(F)c1 [MT-375, Bms777607] | significantly (p-value≤0.05) modulate
44 | CC1(C)CC=C(c2ccccc2)c2cc(/C=C/c3ccc(C(=O)O)cc3)ccc21 [MT-232, Bms189453] | significantly (p-value≤0.05) modulate
45 | CNCc1ccc(C)c(NC(=O)c2ccc(Nc3nc(-c4ccccc4)c4ccccc4n3)cc2)c1 [MT-636, Bms833923] | significantly (p-value≤0.05) modulate
46 | CC1=C(/C=C/C(C)=C/C=C/C(C)=C/C(=O)O)C(C)(C)CCC1 [MT-603, Tretinoin (ATRA)] | significantly (p-value≤0.05) modulate
47 | CN1CCC(CNc2ccc3ncc(-c4cccc(OC(F)(F)F)c4)n3n2)CC1 [MT-254, SGI-1776] | significantly (p-value≤0.05) modulate
48 | O=C(O)CC[C@H]1CC[C@@](c2cc(F)ccc2F)(S(=O)(=O)c2ccc(Cl)cc2)CC1 [MT-308, MK-0752] | significantly (p-value≤0.05) modulate
49 | CC(C)Cc1ccc(C(C)C(=O)O)cc1 (centres unmarked) [MT-662, Ibuprofen] | significantly (p-value≤0.05) modulate
50 | CCCc1cc(=O)[nH]c(=S)[nH]1 [MT-127, Propylthiouracil] | significantly (p-value≤0.05) modulate
51 | c1ccc(-c2[nH]ncc2-c2ccnc3ccccc23)nc1 [MT-740, LY 364947] | significantly (p-value≤0.05) modulate
52 | Oc1nc(-c2ccc(C(F)(F)F)cc2)nc2c1CSCC2 [MT-713, Xav939] | significantly (p-value≤0.05) modulate
53 | NNC(=O)c1ccncc1 [MT-312, Isoniazid] | significantly (p-value≤0.05) modulate
54 | CC(C)c1nc(CN(C)C(=O)N[C@H](C(=O)N[C@@H](Cc2ccccc2)C[C@H](O)[C@H](Cc2ccccc2)NC(=O)OCc2cncs2)C(C)C)cs1 [MT-372, Ritonavir] | significantly (p-value≤0.05) modulate
55 | COc1ccc(C[C@H](NC(C)=O)C(=O)N[C@H]2[C@@H](O)[C@H](n3cnc4c(N(C)C)ncnc43)O[C@@H]2CO)cc1 [MT-993, N-Acetylpurinomycin] | significantly (p-value≤0.05) modulate

Same assay, conditions: pilot RNA-seq study of Example 2; significance: FPKM≥0.5, log 2(fold change)≥1, q-value ≤0.05

Row | Compound | Number (#) of genes having significantly changed expression
56 | Cc1ccc(NC(=O)c2ccc(CN3CCN(C)CC3)cc2)cc1Nc1nccc(-c2cccnc2)n1 [MT-182, Imatinib] | 31
57 | CCOc1ccn(-c2ccc(F)cc2)c(=O)c1C(=O)Nc1ccc(Oc2ccnc(N)c2Cl)c(F)c1 [MT-375, Bms777607] | 19
58 | CC1(C)CC=C(c2ccccc2)c2cc(/C=C/c3ccc(C(=O)O)cc3)ccc21 [MT-232, Bms189453] | 1
59 | CN(CCOc1ccc(CC2SC(=O)NC2=O)cc1)c1ccccn1 (centres unmarked) [MT-361, Rosiglitazone maleate] | 78
60 | CNCc1ccc(C)c(NC(=O)c2ccc(Nc3nc(-c4ccccc4)c4ccccc4n3)cc2)c1 [MT-636, Bms833923] | 66
61 | CC1=C(/C=C/C(C)=C/C=C/C(C)=C/C(=O)O)C(C)(C)CCC1 [MT-603, Tretinoin (ATRA)] | 30
62 | CN1CCC(CNc2ccc3ncc(-c4cccc(OC(F)(F)F)c4)n3n2)CC1 [MT-254, SGI-1776] | 64
63 | CC(C)Cc1ccc(C(C)C(=O)O)cc1 (centres unmarked) [MT-662, Ibuprofen] | 18
64 | CCCc1cc(=O)[nH]c(=S)[nH]1 [MT-127, Propylthiouracil] | 8
65 | c1cc(-c2cnn3cc(-c4ccc(OCCN5CCCCC5)cc4)cnc23)ccn1 [MT-334, Dorsomorphin] | 15
66 | CO[C@H]1C[C@@H]2CC[C@@H](C)[C@@](O)(O2)C(=O)C(=O)N2CCCC[C@H]2C(=O)O[C@H]([C@H](C)C[C@@H]2CC[C@@H](O)[C@H](OC)C2)CC(=O)[C@H](C)/C=C(\C)[C@@H](O)[C@@H](OC)C(=O)[C@H](C)C[C@H](C)/C=C/C=C/C=C/1C [MT-882, Rapamycin] | 67
67 | Oc1nc(-c2ccc(C(F)(F)F)cc2)nc2c1CSCC2 [MT-713, Xav939] | 8
68 | CCCC(CCC)C(=O)O [MT-625, Valproate] | 4
69 | CC(=O)Nc1ccc(O)cc1 [MT-922, Acetaminophen (paracetamol)] | 3
70 | NNC(=O)c1ccncc1 [MT-312, Isoniazid] | 14
71 | CC(C)c1nc(CN(C)C(=O)N[C@H](C(=O)N[C@@H](Cc2ccccc2)C[C@H](O)[C@H](Cc2ccccc2)NC(=O)OCc2cncs2)C(C)C)cs1 [MT-372, Ritonavir] | 183
